Data taken from US20190167711A1, “METHODS FOR DIAGNOSIS AND TREATMENT OF ACUTE LYMPHOBLASTIC LEUKEMIA” (MOR RESEARCH APPLICATIONS LTD., priority 2014, published 2019).

Tests used:
[1] = tested on: NAD^+ formation in Nalm-6 cell line; experiment: NAD^+/NADH assay in Nalm-6 cells treated with FK866; format: cell-based
Procedure: (§1) The NAD^+/NADH ratio was measured in whole-cell extracts of NALM-6 cells using the Biovision NAD^+/NADH Quantification Colorimetric™ Kit (BioVision, San Francisco, Calif., USA) (also referred to herein as “NAD assay”) according to the manufacturer's protocol (see, for example, https://www.biovision.com/documentation/datasheets/K337.pdf). The NAD Cycling Enzyme Mix in the kit specifically recognizes NADH/NAD^+ in an enzyme cycling reaction. After 4 hrs, the plate was read at optical density (OD) 450 nm. The readings were normalized to the cell number and the NAD^+/NADH ratio was calculated as: (total NAD^+−NADH)/NADH.
Nalm-6 cells were treated for 1, 3, and 6 hours with 1 nM FK866 (Sigma) and NAD^+ formation was measured using NAD assay as described in Materials and Methods.
The sensitivity of NALM-6 cells to the NAMPT inhibitor FK866 was measured in cells following transfection with miR-451 mimic (SEQ ID NO: 2), miR-451 inhibitor (miArrest™ miR-451 expression clone; GeneCopoeia™), or scrambled miR. Sensitivity was assessed by measuring the levels of NAD^+. […] Thus, miR-451 expression can distinguish between patients that could benefit from treatment with NAMPT inhibitors such as FK866.

Nalm-6 cells [2] = experiment: Annexin V-FITC apoptosis assay in Nalm-6 cells; format: cell-based; details: 1 nM for 48 hours, Nalm-6 cells, FACS
Excerpt: Cells were stained with annexin V-fluorescein-5-isothiocyanate (FITC) conjugated antibody and propidium iodide (PI) using the Annexin V-FITC Apoptosis Detection Kit (ab14085, Abcam® Incorporated, Cambridge, Mass., USA) according to manufacturer's instructions (see, for example, https://www.abcam.com/ps/products/14/ab14085/documents/ab14085%20Annexin %20V%20FITC%20Apoptosis%20Detection%20Kit%20v4%20(website).pdf), and read on the flow cytometer. Annexin V Apoptosis Detection Kit is based on the observation that soon after initiating apoptosis, cells translocate the membrane phosphatidylserine (PS) from the inner face of the plasma membrane to the cell surface. Once on the cell surface, PS can be easily detected by staining with a fluorescent conjugate (e.g., FITC) of Annexin V, a protein that has a high affinity for PS. The one-step staining procedure takes only 10 minutes. When performing both Annexin V-FITC and PI staining, it is possible to differentiate apoptosis vs necrosis.
(§2) To measure the effect of NAD^+ depletion following FK866 treatment of Nalm-6 cells, apoptosis and viability were measured as described in Materials and Methods. Nalm-6 cells were treated for 48 hours with 1 nM FK866, and then apoptosis was measured using FACS.

Nalm-6 cells [3] = experiment: XTT cell viability assay in Nalm-6 cells; format: cell-based; details: 1 nM for 48 hours, Nalm-6 cells, XTT
Procedure: Cell viability assay was performed using the Cell Proliferation Kit comprising the second-generation tetrazolium dye, XTT. Viable cells with active metabolism convert XTT into an orange colored reduction product, whereas dead cells lose the ability to reduce XTT, thus, color formation serves as a useful and convenient marker of only the viable cells.
The XTT kit was applied to NALM6 transfected cells according to the manufacturer's protocol (Biological Industries, Kibbutz Beit Haemek, Israel). Cells were incubated for 3 hours with the XTT reagent and quantity of reduced XTT (directly proportional to the number of viable cells) was assessed by recording changes in absorbance as measured on a microplate reader at 450-500 nm optical density (OD).
as §2

ALL NALM-6 cells = experiment: FK866 in ALL xenograft mouse model; format: in vivo, NSG™ mice
Procedure: Ten million ALL NALM-6 cells in 100 μl saline were injected subcutaneously, above the femur, to 6-8 weeks-old NSG™ mice (NSG™ mouse model variants are the most highly immunodeficient mice and therefore were chosen as models for cancer xenograft modelling). Tumors were clinically evident 15-28 days following injection in more than 85% of the mice (n=175). Mice were divided into groups receiving either FK866 or vehicle treatment. Mice in the treatment group received FK866 in 0.9% saline intraperitoneally at a dose of 15 mg/Kg daily for 5 days. Vehicle in the control group was injected intraperitoneally once a day for 5 days repeated weekly. The volume of tumors was measured daily until mice were sacrificed. Tumor volume was monitored using vernier caliper measurements and calculated using the formula π(length)(width)^2/6. Each experiment was ended when tumor size reached 12×12 mm^3. All animal experiments were performed under an approved animal study protocol.
Following the in vitro studies described in Example 4 herein, the sensitivity of ALL tumor growth to a NAMPT inhibitor was tested in-vivo in an ALL xenograft mouse model. The NAMPT inhibitor tested was the known small molecule FK866. The effect of FK866 was tested in the ALL xenograft mouse model in 4 independent experiments each performed on a group of 82 NSG™ mice as follows: 41 mice were treated with FK866 (15 mg/kg) once a day for 5 days repeated weekly, and 41 mice served as controls (i.e., were not treated with FK866 and received saline instead).
Mice were treated from the day tumors were clinically evident in all mice (day 25), and tumors volume was measured daily.

NALM-6/antagomiR-451 = experiment: FK866 in xenograft of NALM-6/antagomiR-451 stable line; format: in vivo, NSG™ mice
Procedure: (§3) miR-451 precursor and antagomiR-451 expression clones were obtained from GeneCopoeia™ (GeneCopoeia, Rockville, Md., USA). Stable cell lines were prepared by the Tel Aviv University's Vector Core Facility by transduction of ALL cell line (NALM-6) with lentiviral particles co-encoding miR-451 precursor or antagomiR-451, the ORF for EGFP/mCherry and puromycin-resistance, under the control of individual CMV promoters. The ORFs and the miR-451 precursor/antagomiR-451 oligonucleotide sequences were incorporated into the pLL3.7 3rd generation lentiviral vector. […]
(§4) Ten million ALL NALM-6 cells in 100 μl saline were injected subcutaneously, above the femur, to 6-8 weeks-old NSG™ mice (NSG™ mouse model variants are the most highly immunodeficient mice and therefore were chosen as models for cancer xenograft modelling). […] The volume of tumors was measured daily until mice were sacrificed. Tumor volume was monitored using vernier caliper measurements and calculated using the formula π(length)(width)^2/6. […]
(§5) In order to assess a possible association or correlation between miR-451 expression levels and sensitivity to in-vivo treatment of ALL with a NAMPT inhibitor, the effect of the NAMPT inhibitor FK866 was assessed in the presence of elevated levels or lowered levels of miR-451 in ALL xenograft mouse model. […] Tumors volume was measured daily.

NALM-6/miR-451 mimic = experiment: FK866 in xenograft of NALM-6/miR-451 mimic stable line; format: in vivo, NSG™ mice
Procedure: as §3, §4, §5

[4] = Phase I, patients with advanced cancers; cited from earlier work
NAMPT = NAMPT expression after TPA treatment; format: cell-based; details: 50 ng/ml for 24 hours, human peripheral blood cells, FACS
Procedure: Studies by several investigators have shown that 12-0-tetradecanoylphorbol-13-acetate (TPA) (Sigma) is an extraordinarily potent tumor promoter and stimulates protein kinase C (PKC). Since NAMPT is over-expressed in several tumors, it was believed that it might be possible to achieve NAMPT stimulation by TPA treatment. To test this hypothesis, human peripheral blood cells were treated with 50 ng/ml TPA for 24 hours, and NAMPT expression was measured by FACS using a specific NAMPT antibody.

NAD^+ levels = experiment: NAD assay in TPA stimulated cells; format: cell-based, human
Procedure: as §1
NAMPT is the rate-limiting enzyme in the NAD^+ biosynthetic pathway. Thus, NAD^+ levels in the stimulated cells were measured using a standard NAD assay (BioVision NADH/NAD^+ Quantification Colorimetric™ Kit).

phospho-STAT protein = experiment: Phospho-STAT levels by FACS after miR-1290 mimic transfection; format: cell-based; details: NALM-6 cell line transfected
Procedure: Phosphorylated STAT (phospho-STAT, activated by JAK) levels were measured by FACS analysis following transfection of miR-1290 mimic (overexpression) into NALM-6 cell line. An increase of 50% in the levels of phospho-STAT protein was evident in the cells expressing high levels of miR-1290 (FIG. 11).

**Q.** With `O=C(/C=C/c1cccnc1)NCCCCC1CCN(C(=O)c2ccccc2)CC1` [FK866] as the molecule, how does the “NAD^+ detection following treatment” value ([1]; 1 nM for 1, 3 and 6 hours, Nalm-6 cells) read?
**A.** gradual decrease in NAD^+ detection

**Q.** What about the “change in NAD^+ production after FK866 treatment compared to control” value ([1]; Nalm-6/miR-451 inhibitor cells) of the same molecule?
**A.** more than 5 fold

**Q.** What about the “change in NAD^+ production after FK866 treatment compared to control” value ([1]; Nalm-6/miR-451 mimic cells) of the same molecule?
**A.** less change in NAD^+ production

**Q.** What about the apoptosis level (Nalm-6 cells [2]) of the same molecule?
**A.** significantly increased apoptosis level

**Q.** What about the cell viability (Nalm-6 cells [3]) of the same molecule?
**A.** significant decrease in cell viability

**Q.** And the “mean tumor volume at the end of experiment” value (ALL NALM-6 cells; 15 mg/kg daily, day 32)?
**A.** 300.36±63.67 mm^3

**Q.** And the tumor growth increase (ALL NALM-6 cells; 15 mg/kg daily, day 32 vs day 25)?
**A.** less than 150%

**Q.** What about the “volume change treated vs non-treated group” value (ALL NALM-6 cells; within 4 days of treatment (day 29)) of the same molecule?
**A.** tumor growth inhibition

**Q.** What about the “tumor growth/volume change treated vs un-treated” value (NALM-6/antagomiR-451; NALM-6/antagomiR-451 mice) of the same molecule?
**A.** significant difference in tumor growth/volume change

**Q.** And the “mean tumor volume at the end of experiments” value (NALM-6/antagomiR-451; antagomiR-451 group, FK866 15 mg/kg)?
**A.** 117±81 mm^3

**Q.** What about the “tumor growth/volume change treated vs untreated” value (NALM-6/miR-451 mimic; NALM-6/miR-451 mimic mice) of the same molecule?
**A.** Only a moderate difference in tumor growth/volume change

**Q.** What about the “mean tumor volume at the end of experiments” value (NALM-6/miR-451 mimic; miR-451 mimic group, FK866 15 mg/kg) of the same molecule?
**A.** 544±64 mm^3

**Q.** And the tolerability and safety [4]?
**A.** well tolerated and safe

**Q.** For `CCCCCCCCCCCCCC(=O)O[C@@H]1[C@@H](C)[C@@]2(O)[C@@H](C=C(CO)C[C@]3(O)C(=O)C(C)=C[C@@H]23)[C@@H]2C(C)(C)[C@]12OC(C)=O` [TPA, 12-O-tetradecanoylphorbol-13-acetate], which “increase in NAMPT expression levels” value (NAMPT) is on record?
**A.** more than 4 folds

**Q.** What about the “cellular NAD^+ levels, fold higher” value (NAD^+ levels) of the same molecule?
**A.** 2 fold

**Q.** Which “increase in the levels of phospho-STAT protein” value (phospho-STAT protein) does the source give for “miR-1290 mimic: synthetic miR-1290 mimic, SEQ ID NO:4, for over-expression of miR-1290 (UGGAUUUUUGGAUCACCUGAUCCAAAAAU; listed as RNA, chemistry not given here)” here?
**A.** 50%
